Laboratory results: ChEMBL document CHEMBL1139433 (J Med Chem, 2004)
Square brackets hold non-standard residues; d marks the D form. Peptide text beside a SMILES is read from it. Phe(4-NH2) = Nc1ccc(C[C@H](N)C(=O)O)cc1

Target: T1, Angiotensin II receptor (AT-1) type-1 (Rattus norvegicus, UniProt P29089+P25095)
T1 sequence (P29089 whole entry): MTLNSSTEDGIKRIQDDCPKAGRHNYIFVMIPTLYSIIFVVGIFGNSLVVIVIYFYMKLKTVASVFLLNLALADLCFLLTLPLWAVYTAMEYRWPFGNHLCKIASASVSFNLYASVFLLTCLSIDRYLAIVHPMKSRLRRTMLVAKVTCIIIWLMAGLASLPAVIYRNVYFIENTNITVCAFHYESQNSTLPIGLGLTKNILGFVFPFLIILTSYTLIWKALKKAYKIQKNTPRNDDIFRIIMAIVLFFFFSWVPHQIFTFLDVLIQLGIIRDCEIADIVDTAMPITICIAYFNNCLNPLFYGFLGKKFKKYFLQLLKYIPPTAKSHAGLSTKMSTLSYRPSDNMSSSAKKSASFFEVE
T1 sequence (P25095 whole entry): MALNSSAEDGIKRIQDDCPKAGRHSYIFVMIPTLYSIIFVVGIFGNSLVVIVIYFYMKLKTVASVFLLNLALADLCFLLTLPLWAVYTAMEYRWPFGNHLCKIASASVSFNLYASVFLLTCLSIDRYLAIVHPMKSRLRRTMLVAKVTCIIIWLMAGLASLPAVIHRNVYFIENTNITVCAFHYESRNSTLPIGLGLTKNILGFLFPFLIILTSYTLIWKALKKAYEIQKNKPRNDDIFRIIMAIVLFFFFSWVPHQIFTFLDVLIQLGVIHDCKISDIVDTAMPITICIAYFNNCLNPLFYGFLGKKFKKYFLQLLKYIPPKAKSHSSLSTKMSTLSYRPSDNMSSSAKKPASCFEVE
Assay: Displacement of [125I]-Ang II from rat liver membrane angiotensin II type 1 (AT1) receptor

Ki: > 10 µM
Structure (SMILES): CC[C@H](C)[C@H](NC(=O)[C@H](Cc1ccc(O)cc1)NC(=O)[C@@H](NC(=O)[C@H](CCCN=C(N)N)NC(=O)[C@@H](N)CC(=O)O)C(C)C)C(=O)N[C@@H](Cc1ccc(N)cc1)C(=O)N1CCC[C@H]1C(=O)N[C@@H](Cc1ccccc1)C(=O)O (H-DRVYI[Phe(4-NH2)]PF-OH)
